Assay results: the supplement of paper PMC10307832

Key:
Test in all cases: relative viability (nuclei count vs DMSO), 5 days (fraction); higher = more cells survive
Tivantinib = compound: O=C1NC(=O)[C@@H](c2cn3c4c(cccc24)CCC3)[C@@H]1c1c[nH]c2ccccc12 [Tivantinib]
How it was run: (§1)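 Lung cancer cell lines were seeded into 1536-well plates, kept overnight at 37 °C and pinned with five library-drug doses (not always all listed) spaced by √10. After 5 days, nuclei were Hoechst-stained, imaged at 4× and counted with MetaXpress. Viability is treated-well nuclei over vehicle-well nuclei, taken as a median across plates. Plates needed control CV below 25% and at least one doubling.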

Crenolanib = compound: CC1(COc2ccc3c(c2)ncn3-c2ccc3cccc(N4CCC(N)CC4)c3n2)COC1 [Crenolanib]
How it was run: as §1

Crenolanib + Alpelisib = compound: CC1(COc2ccc3c(c2)ncn3-c2ccc3cccc(N4CCC(N)CC4)c3n2)COC1 [Crenolanib] + Cc1nc(NC(=O)N2CCC[C@H]2C(N)=O)sc1-c1ccnc(C(C)(C)C(F)(F)F)c1 [Alpelisib] (partner 2 µM)
How it was run: (§2)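 One day after seeding in 1536-well plates, lung cancer cell lines were dosed by pin tool. Dosing was either single-drug or a fixed anchor-drug dose plus five library-drug doses (not always all listed) in √10 steps. After 5 days, nuclei were stained in one fix-and-stain step and counted on 4× images, and relative viability is the nuclei count of treated wells over that of vehicle wells, given as the median of duplicate plates.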

Crenolanib + Pictilisib = compound: CC1(COc2ccc3c(c2)ncn3-c2ccc3cccc(N4CCC(N)CC4)c3n2)COC1 [Crenolanib] + CS(=O)(=O)N1CCN(Cc2cc3nc(-c4cccc5[nH]ncc45)nc(N4CCOCC4)c3s2)CC1 [Pictilisib] (partner 1 µM)
How it was run: as §2

UMC-11 was tested, and the relative viability (Tivantinib; 0.01 µM) was 0.966, the relative viability (Tivantinib; 0.03162 µM) was 0.842 and the relative viability (Tivantinib; 0.1 µM) was 0.923. It also gave a relative viability (Tivantinib; 0.3162 µM) of 1.03, a relative viability (Crenolanib; 0.01 µM) of 0.963 and a relative viability (Crenolanib; 0.03162 µM) of 0.978. For the same cell line, the relative viability (Crenolanib; 0.1 µM) was 0.972, the relative viability (Crenolanib; 0.3162 µM) was 1.01 and the relative viability (Crenolanib; 1 µM) was 0.931. The relative viability (Crenolanib + Alpelisib; first compound 0.01 µM) was 1.06, the relative viability (Crenolanib + Alpelisib; first compound 0.03162 µM) was 0.958 and the relative viability (Crenolanib + Alpelisib; first compound 0.1 µM) was 0.956. For the same cell line, the relative viability (Crenolanib + Alpelisib; first compound 0.3162 µM) was 1.14, the relative viability (Crenolanib + Alpelisib; first compound 1 µM) was 0.989 and the relative viability (Crenolanib + Pictilisib; first compound 0.01 µM) was 0.76. The relative viability (Crenolanib + Pictilisib; first compound 0.03162 µM) was 0.834, the relative viability (Crenolanib + Pictilisib; first compound 0.1 µM) was 0.787 and the relative viability (Crenolanib + Pictilisib; first compound 0.3162 µM) was 0.848. The relative viability (Crenolanib + Pictilisib; first compound 1 µM) was 0.733.
